Consider 1 compound from ChEMBL document CHEMBL5360655, “Design, Synthesis, and Biological Evaluation of Novel P2X7 Receptor Antagonists for the Treatment of Septic Acute Kidney Injury” (J Med Chem, 2023).

One data set relates to THP-1. Put plainly: Inhibition of ATP-induced ROS production in human THP-1 cells at […] pretreated with LPS for 3 hrs followed by incubation with compound for 40 mins followed by treatment with ATP for 1 hr by DCFH-DA staining based fluorescence microscopic analysis. The format is functional, cell-based. Conditions: dose 2.5 µM, time 100.0 min.
A short description of data set [1]: Toxicity in C57BL/6J mouse assessed as pathological changes in lungs at 20 mg/kg, ip administered twice at 0 hrs and 8 hrs and measured after 16 hrs by Hematoxylin-Eosin staining based analysis. To be noted: in vivo. The format is organism-based.
Data set [2] is described as follows: Toxicity in C57BL/6J mouse assessed as pathological changes in heart at 20 mg/kg, ip administered twice at 0 hrs and 8 hrs and measured after 16 hrs by Hematoxylin-Eosin staining based analysis. The format is organism-based. Conditions: in vivo.

Molecules are shown by their SMILES. Calls of active or inactive are those of the source. The rule behind the calls is not given here.

As for `CS(=O)(=O)c1ccc(-c2nc(C(=O)NCc3cn(-c4cc(Br)ccn4)nn3)cs2)cc1`, the inhibition result with THP-1 is “Active”. Also, the Activity entry in data set [1] and in data set [2] was “Non-Toxic” in each case.
